{"source": "patent US10029017B2", "about": "“Pretargeted activatable cell penetrating peptide with intracellularly releasable prodrug” (The Regents of the University of California, priority 2013, dated 2018)", "tested_on": "MDA-MB-231 orthotopic xenografts", "experiment": "chemotherapy of MDA-MB-231 orthotopic xenografts: tumor volume, regression, survival", "type": "in vivo, mice", "conditions": "0.32 mg/kg equivalents of MMAE, equimolar free MMAE", "description": "A) Tumor growth curve obtained from MDA-MB-231 bilateral tumor bearing mice that were either intravenously injected with 6.5 nanomoles of MMAE (red line), cRAD-PEG6-MMAE (green line), cRGD-MMP-MMAE (dark blue) or no injection (no treatment, light blue).\nMonomethyl auristatin E (MMAE), a potent chemotherapeutic inhibitor of tubulin polymerization, was conjugated to an ACPP via a peptide linker, Val-Cit-(p-amido)benzyloxycarbonyl, which is cleavable by cathepsin B, an endolysosomal protease. Mice harboring MDA-MB-231 orthotopic xenografts were dosed with cRGD-ACPP-MMAE at 0.2 mg/kg equivalents MMAE (6.5 nanomoles peptide) every three days for a total of four doses and tumor volumes were measured at regular intervals. […] When the dose was increased to 0.32 mg/kg equivalents of MMAE, the dual targeted peptide caused 4 out of 8 tumors to regress completely, compared to 2 out of 8 for equimolar free MMAE. The ACPPs caused no weight loss or gross toxicity. […] Animal weights are illustrated in FIGS. 7, 9, and 11.", "note": "Non-standard residues stand in square brackets, D forms with d. Residues, ends and D or L forms follow the SMILES beside them. *: point of attachment. Dolaproine = CO[C@@H]([C@@H]1CCCN1)[C@@H](C)C(=O)O; Dil = CC[C@H](C)[C@H](NC)[C@@H](CC(=O)O)OC; X1 = C[C@@H](N*)[C@@H](O)c1ccccc1; NMeV = CN[C@H](C(=O)O)C(C)C", "data": [{"smiles": "CC[C@H](C)[C@@H]([C@@H](CC(=O)N1CCC[C@H]1[C@H](OC)[C@@H](C)C(=O)N[C@H](C)[C@@H](O)c1ccccc1)OC)N(C)C(=O)[C@@H](NC(=O)[C@@H](NC)C(C)C)C(C)C", "note": "[MMAE, Monomethyl auristatin E] (H-[NMeV]V[Dil][Dolaproine]-X1)", "values": [{"measurement": "tumors that regressed completely", "value": "2 out of 8"}]}]}
